Like-named read-outs stand apart in the source and are kept apart here.
How the values were obtained:
SARS-CoV-2 nsp3-mac1 [1] = target: T1, SARS-CoV-2 nsp3-mac1 (Severe acute respiratory syndrome coronavirus 2, UniProt P0DTD1); assay: biochemical; set-up: SARS-CoV-2 nsp3 macrodomain TR-FRET single point, per cent inhibition, n=2
SARS-CoV-2 nsp3-mac1 [2] = target: T1, SARS-CoV-2 nsp3-mac1; assay: biochemical; assay type: biochemical; conditions: SARS-CoV-2 nsp3 macrodomain TR-FRET single point
[3] = read-out: perc_inhibition_mean, batch_name=ASAP-0000261-001
[4] = read-out: perc_inhibition_mean, batch_name=ASAP-0000061-002
[5] = read-out: perc_inhibition_mean, batch_name=ASAP-0000407-001
[6] = read-out: perc_inhibition_mean, batch_name=ASAP-0000425-001
[7] = read-out: perc_inhibition_mean, batch_name=ASAP-0000291-001
[8] = read-out: perc_inhibition_mean, batch_name=ASAP-0000409-001
[9] = read-out: perc_inhibition_mean, batch_name=ASAP-0000478-001
[10] = read-out: perc_inhibition_mean, batch_name=ASAP-0000355-001
[11] = read-out: perc_inhibition_mean, batch_name=ASAP-0000458-001
[12] = read-out: perc_inhibition_mean, batch_name=ASAP-0000263-001

## c1cc(CNc2cnc3[nH]ncc3c2)cc(-c2ccncc2)c1 [ASAP-0000022]
SARS-CoV-2 nsp3-mac1 [1]; read-out: perc_inhibition_mean, batch_name=ASAP-0000022-001
  inhibition at 50 µM: -17.2%
SARS-CoV-2 nsp3-mac1 [2]; concentration 50.0 uM
  perc_inhibition_mean: -17.179%

## O=C(NCc1nc2cccnc2[nH]1)c1cnc2nc[nH]c(=O)c2c1 [ASAP-0000261]
SARS-CoV-2 nsp3-mac1 [1]; [3]
  inhibition at 50 µM: -1.99%
  inhibition at 100 µM: 7.03%
SARS-CoV-2 nsp3-mac1 [2]; concentration 50.0 uM, n=2
  perc_inhibition_mean: -1.987%
SARS-CoV-2 nsp3-mac1 [2]; concentration 100.0 uM, n=2
  perc_inhibition_mean: 7.034%

## O=C(Nc1cnc2[nH]ncc2c1)c1ccncc1Cl [ASAP-0000061]
SARS-CoV-2 nsp3-mac1 [1]; read-out: perc_inhibition_mean, batch_name=ASAP-0000061-001
  inhibition at 50 µM: -0.272%
SARS-CoV-2 nsp3-mac1 [1]; [4]
  inhibition at 50 µM: -2.75%
  inhibition at 100 µM: 2.96%
SARS-CoV-2 nsp3-mac1 [2]; concentration 50.0 uM
  perc_inhibition_mean: -0.272%
SARS-CoV-2 nsp3-mac1 [2]; concentration 50.0 uM, n=2
  perc_inhibition_mean: -2.752%
SARS-CoV-2 nsp3-mac1 [2]; concentration 100.0 uM, n=2
  perc_inhibition_mean: 2.961%

## C[C@@H](NC(=O)c1cnn2ccc(C3CCN(C(=O)c4ccccc4)CC3)cc12)c1cc[nH]n1 [ASAP-0000407]
SARS-CoV-2 nsp3-mac1 [1]; [5]
  inhibition at 49.75 µM: -4.99%
  inhibition at 99.5 µM: -2.77%
SARS-CoV-2 nsp3-mac1 [2]; concentration 49.75 uM
  perc_inhibition_mean: -4.99%
SARS-CoV-2 nsp3-mac1 [2]; concentration 99.5 uM
  perc_inhibition_mean: -2.773%

## COC[C@@H](Nc1ncnc2nc[nH]c12)c1ccc(C)o1 [ASAP-0000425]
SARS-CoV-2 nsp3-mac1 [1]; [6]
  inhibition at 49.75 µM: -4.64%
  inhibition at 99.5 µM: 3.94%
SARS-CoV-2 nsp3-mac1 [2]; concentration 49.75 uM
  perc_inhibition_mean: -4.638%
SARS-CoV-2 nsp3-mac1 [2]; concentration 99.5 uM
  perc_inhibition_mean: 3.942%

## C[C@H](NC(=O)c1ccc(NC(=O)Nc2ccccc2)cc1)c1ccccn1 [ASAP-0000291]
SARS-CoV-2 nsp3-mac1 [1]; [7]
  inhibition at 49.75 µM: 2.45%
  inhibition at 99.5 µM: 0.349%
SARS-CoV-2 nsp3-mac1 [2]; concentration 49.75 uM, n=2
  perc_inhibition_mean: 2.448%
SARS-CoV-2 nsp3-mac1 [2]; concentration 99.5 uM, n=2
  perc_inhibition_mean: 0.349%

## O=C(Nc1cnc2[nH]ncc2c1)c1ccc(Oc2cccc(Br)c2)nc1 [ASAP-0000023]
SARS-CoV-2 nsp3-mac1 [1]; read-out: perc_inhibition_mean, batch_name=ASAP-0000023-001
  inhibition at 50 µM: -0.183%
SARS-CoV-2 nsp3-mac1 [2]; concentration 50.0 uM
  perc_inhibition_mean: -0.183%

## OCc1cn([C@@H]2CCCN(c3ncnc4[nH]ccc34)C2)nn1 [ASAP-0000047]
SARS-CoV-2 nsp3-mac1 [1]; read-out: perc_inhibition_mean, batch_name=ASAP-0000047-001
  inhibition at 50 µM: -0.682%
SARS-CoV-2 nsp3-mac1 [2]; concentration 50.0 uM
  perc_inhibition_mean: -0.682%

## CN(CCOc1ccccc1)c1ncnc2[nH]ccc12 [ASAP-0000026]
SARS-CoV-2 nsp3-mac1 [1]; read-out: perc_inhibition_mean, batch_name=ASAP-0000026-001
  inhibition at 50 µM: -2.26%
SARS-CoV-2 nsp3-mac1 [2]; concentration 50.0 uM
  perc_inhibition_mean: -2.258%

## Cn1c(C(=O)NCCn2cccc2)cc2c(=O)n3ccccc3nc21 [ASAP-0000188]
SARS-CoV-2 nsp3-mac1 [1]; read-out: perc_inhibition_mean, batch_name=ASAP-0000188-001
  inhibition at 50 µM: 2.26%
SARS-CoV-2 nsp3-mac1 [2]; concentration 50.0 uM
  perc_inhibition_mean: 2.262%

## O=C(NCc1nc(-c2ccco2)n[nH]1)c1cc2nccn2c(=O)[nH]1 [ASAP-0000068]
SARS-CoV-2 nsp3-mac1 [1]; read-out: perc_inhibition_mean, batch_name=ASAP-0000068-001
  inhibition at 50 µM: -5.42%
SARS-CoV-2 nsp3-mac1 [2]; concentration 50.0 uM
  perc_inhibition_mean: -5.425%

## O=C(CCN(Cc1cccc(Cl)c1)C(=O)c1ccc(O)cc1)N1CCNCC1 [ASAP-0000409]
SARS-CoV-2 nsp3-mac1 [1]; [8]
  inhibition at 49.75 µM: -0.343%
  inhibition at 99.5 µM: -1.63%
SARS-CoV-2 nsp3-mac1 [2]; concentration 49.75 uM
  perc_inhibition_mean: -0.343%
SARS-CoV-2 nsp3-mac1 [2]; concentration 99.5 uM
  perc_inhibition_mean: -1.632%

## CC(C)Cn1cc([C@H]2N(c3ncnc4[nH]ccc34)CC23CCOCC3)cn1 [ASAP-0000478]
SARS-CoV-2 nsp3-mac1 [1]; [9]
  inhibition at 49.75 µM: -0.591%
  inhibition at 99.5 µM: -4.66%
SARS-CoV-2 nsp3-mac1 [2]; concentration 49.75 uM
  perc_inhibition_mean: -0.591%
SARS-CoV-2 nsp3-mac1 [2]; concentration 99.5 uM
  perc_inhibition_mean: -4.664%

## C#Cc1cccc(NC(=O)CN(C)c2ncnc3[nH]ccc23)c1 [ASAP-0000024]
SARS-CoV-2 nsp3-mac1 [1]; read-out: perc_inhibition_mean, batch_name=ASAP-0000024-001
  inhibition at 50 µM: 4.4%
SARS-CoV-2 nsp3-mac1 [2]; concentration 50.0 uM
  perc_inhibition_mean: 4.398%

## O=C(NCc1ncccn1)c1cnn2ccc(C3CCN(C(=O)c4ccccc4)CC3)cc12 [ASAP-0000355]
SARS-CoV-2 nsp3-mac1 [1]; [10]
  inhibition at 49.75 µM: -0.074%
  inhibition at 99.5 µM: -6.66%
SARS-CoV-2 nsp3-mac1 [2]; concentration 49.75 uM
  perc_inhibition_mean: -0.074%
SARS-CoV-2 nsp3-mac1 [2]; concentration 99.5 uM
  perc_inhibition_mean: -6.657%

## O=C(O)c1ccc2c(c1)ncn2-c1ccc(CNC(=O)c2ncnc3[nH]ccc23)cc1 [ASAP-0000458]
SARS-CoV-2 nsp3-mac1 [1]; [11]
  inhibition at 49.75 µM: -33.4%
  inhibition at 99.5 µM: -4.65%
SARS-CoV-2 nsp3-mac1 [2]; concentration 49.75 uM
  perc_inhibition_mean: -33.429%
SARS-CoV-2 nsp3-mac1 [2]; concentration 99.5 uM
  perc_inhibition_mean: -4.649%

## Cc1[nH]c2ncnc(NC(=O)c3ncn(-c4ccccc4)n3)c2c1C [ASAP-0000027]
SARS-CoV-2 nsp3-mac1 [1]; read-out: perc_inhibition_mean, batch_name=ASAP-0000027-001
  inhibition at 50 µM: 7.1%
SARS-CoV-2 nsp3-mac1 [2]; concentration 50.0 uM
  perc_inhibition_mean: 7.104%

## NS(=O)(=O)N1CCCN(c2ncnc3[nH]c(I)cc23)CC1 [ASAP-0000017]
SARS-CoV-2 nsp3-mac1 [1]; read-out: perc_inhibition_mean, batch_name=ASAP-0000017-001
  inhibition at 50 µM: 2.29%
SARS-CoV-2 nsp3-mac1 [2]; concentration 50.0 uM
  perc_inhibition_mean: 2.291%

## Cc1[nH]c2ncnc(NCc3ccco3)c2c1C [ASAP-0000263]
SARS-CoV-2 nsp3-mac1 [1]; [12]
  inhibition at 50 µM: 17%
  inhibition at 100 µM: 37.5%
SARS-CoV-2 nsp3-mac1 [2]; concentration 50.0 uM, n=2
  perc_inhibition_mean: 16.967%
SARS-CoV-2 nsp3-mac1 [2]; concentration 100.0 uM, n=2
  perc_inhibition_mean: 37.474%
